Our source for the melting point values is a melting point compilation (Tetko et al.; mined from patent text by program, amines drawn as free bases though some values may be those of a salt).

Where only a bound is given, the exact number is not on record here.

The term melting point denotes the temperature, or range, at which the solid turns liquid. In the case of `O=C(NCC(=O)N1c2ccccc2N(Cc2ccccc2)C(=O)[C@H]2CCC[C@H]21)c1ccccc1[N+](=O)[O-]` (relative stereo), the melting point was in the range of 132 to 135 °C.
Then `CC(C)(C)OC(=O)[C@@H]1CCCN1C(=O)CCS`, with 57 to 58 °C; and `Cc1noc(NS(=O)(=O)c2ccsc2C(=O)Nc2cc3c(cc2C#N)OCO3)c1Cl`, with 167 to 168 °C.
Then `CC(=O)SCC(C(=O)NC(Cc1ccc(O)cc1)C(=O)O)C(F)(F)F` (configuration not stated), with 170 to 173 °C.
Then `OC(CNCCNc1ncnc2[nH]ncc12)COc1ccccc1` (configuration not stated), with 142 to 144 °C; and `CC(O)c1cc2c(s1)C(=O)c1ccsc1C2=O` (configuration not stated), with 166 to 168 °C.
With `N#Cc1c(N2CCc3ccccc3CC2)ncn(CCO)c1=O`, the melting point lay within 167 to 171 °C.
The result for `COc1ccc(-c2cncc(OC3SCC(O)C(O)C3O)c2)cc1Cl` (configuration not stated) reads 165 °C; that for `CSCC(=O)Nc1ccc(C2=NNC(=O)CC2C)cc1` (configuration not stated), 220 to 222 °C.
Then `COC(=O)Cc1ccc(OCCNC(=O)C2Cc3ccccc3N2S(=O)(=O)c2ccc(-c3ccc(F)cc3OC)cc2)cc1` (configuration not stated), with 70 to 75 °C; and `CCOC(=O)C1=C(C)NC(C)=C(C(=O)OC)C1c1ccc([N+](=O)[O-])cc1` (configuration not stated), with 150 °C.
The result for `OC(c1cccnn1)c1ccc(Cl)cc1Cl` (configuration not stated) reads 130 to 132 °C; that for `N#CN1c2ccccc2CC(=O)c2ccccc21`, 153 to 154 °C.
In turn, `CC(=O)OC1CSC(Oc2cncc(Cl)c2)C(OC(C)=O)C1OC(C)=O` (configuration not stated) returned a melting point of 160 °C.
For `CC(Nc1ccc(Cc2ccccc2)cc1)C(=O)O` (configuration not stated), the melting point stood at 119 °C.
`COc1cc(COc2nn(-c3ccccc3)cc2/C=C/c2ccccn2)ccc1OCc1nc(-c2ccco2)oc1C` yielded a melting point of 135 to 136 °C.
In turn, `O=C(O)C=CCNCS(=O)(=O)c1ccc([N+](=O)[O-])cc1[N+](=O)[O-]` registered a melting point of 174 °C.
Take `CSC(SC)=C(Cl)c1cccc(C(=O)c2ccccc2)c1`: the melting point is 94 to 96 °C.
Then `CC1CCCC1(Oc1ccc(CC(=O)c2ccc3c(c2)CCC3)cc1)C(=O)O` (configuration not stated), with 191 to 193 °C; and `O=C(O)c1ccc(Cc2ccccc2)cn1`, with 145 to 147 °C.
The result for `CN(Cc1cccs1)C(=O)C12CC3CC(CC(O)(C3)C1)C2` reads 88 to 91 °C; that for `CS(=O)c1cc(CCC(=O)OC(C)(C)C)nc(-c2nc(=O)c3ccccc3s2)c1` (configuration not stated), 160 °C.
Then `Cc1c(F)cccc1Cc1c(-c2ccccc2)c2cc(C=O)cnn2c1C(=O)N1CCN(C(=O)OC(C)(C)C)CC1`, with 208 to 209 °C.
For the compound `CCCCCCCCCCCCCCCCC(C)(C)C(=O)O`, the melting point fell in the range of 50 to 53 °C.
The result for `OCc1c(Cl)cncc1Cl` reads 87 to 88 °C; that for `CCOC1CN(Cc2ccccc2OC)Cc2cc(OC)c(O)cc21` (configuration not stated), 101 to 102 °C; that for `CCCc1nn(-c2ccc(C(F)(F)F)cn2)cc1COc1cccc(CC(=O)O)c1`, 77 to 78 °C.
Then `COc1ccc(S(=O)(=O)N2c3ccccc3CC2C(=O)NO)cc1` (configuration not stated), with 142 °C; and `COC(=O)Cc1ccc(OCCCOc2cc3c(cc2O)CCO3)cc1`, with 108 to 110 °C.
Consider `O=C(Oc1ccc(F)cc1)c1ccccc1`, for which the melting point lay within 48 to 50 °C.
The compound `COC(=O)c1c(N)ncn1C1c2ccccc2CC2CCCCC21` (configuration not stated) had a melting point of 155 to 159 °C.
The result for `CN(c1cccnc1S(N)(=O)=O)S(=O)(=O)CF` reads 160 to 162 °C; that for `CCCCc1ncc(/C=C(\Cc2cccs2)C(=O)O)n1Cc1cccc([N+](=O)[O-])c1`, 182 to 184 °C.
The result for `CC1(C)c2cc(C#N)ccc2OC1OC(=O)CCl` (configuration not stated) reads 138 °C; that for `COC(=O)C1=NC2=COc3cc(C)c(Cl)cc3N2C1C(=O)O` (configuration not stated), 240 to 244 °C; that for `COC(=O)c1ccccc1CS(N)(=O)=O`, 79 to 81 °C.
The result for `COc1ccc(OC)c(CN[C@H]2[C@H]3CCN(C[C@@H]3C(N)=O)[C@H]2C(c2ccccc2)c2ccccc2)c1` (relative stereo) reads 127 to 129 °C; that for `Cc1ccc2c(=O)n(CCCN3CC=C(c4ccc(Cl)cc4)CC3)c(=O)[nH]c2c1`, 199 to 201 °C; that for `COc1cccc2c(-c3ccccc3)c([N+](=O)[O-])oc12`, 160 to 161 °C.
Turning to `COc1ccc2[nH]c(SCc3ncnc(N4CCCCC4)c3C)nc2c1`, the melting point was in the range of 94 to 96 °C.
`COCc1cc2ccccc2oc1=Nc1ccccc1`: the melting point is 64 to 65 °C.
`CC1(C)C=Cc2cc(C#N)c([N+](=O)[O-])cc2O1`: the melting point is 154 to 155 °C.
Then `O=C1Nc2ccc(Br)cc2C12CCCCC2`, with 196 to 199 °C.
`CC(=O)Nc1ccc(C=Cc2cc(=O)cc(-c3ccccc3)o2)cc1` showed a melting point of 271 to 272 °C.
For the compound `CC(C)c1c(C=C(Br)Br)c(-c2ccc(F)cc2)n2ccccc12`, the melting point lay within 118 to 120 °C.
`COc1cc(C2CCN(CCO)CC2O)ccc1Nc1ncc2ccc(-c3ccccc3OC)n2n1` (configuration not stated) had a melting point of 88 to 96 °C.
Compound `COC(=O)c1cccc2nc(OC)n(Cc3ccc(-c4ccccc4C#N)cc3)c12` returned a melting point of 149 to 150 °C.
The result for `O=c1n(CO)c2ccccc2n1CO` reads 157 to 161 °C; that for `Nc1cc(C(=O)O)c(Cl)cc1F`, 153 to 155 °C.
`c1ccc(Cc2nnc(Nc3cccc(-n4ccnc4)c3)c3ccccc23)cc1`: the melting point fell in the range of 214 to 217 °C.
Then `COc1cc(Nc2nccc(Nc3ccc(OCC(=O)OC(C)(C)C)cc3)n2)cc(OC)c1OC`, with 139 °C; and `COCCCn1c2cc(Cl)ccc2n2c(C)nnc12`, with 136 °C; and `O=C(CS(=O)(=O)c1ccccc1)NC1CCN(Cc2ccc(Cl)c(Cl)c2)CC1`, with 97 to 99 °C.
The compound `CCOC(=O)c1cccc(C2COc3c(ccc(O)c3C)C2)c1` (configuration not stated) gave a melting point of 143 to 144 °C.
The result for `CN(C)CC1=Cc2ccc(C(=O)Nc3ccc(Br)cc3)cc2CC1` reads 175 to 179 °C; that for `CC(C(=O)O)=C1CCC2C3CCC4=CC(=O)CCC4(C)C3CCC12C` (configuration not stated), 266 to 270 °C.
The result for `Cc1ccccc1CN1CCN(C2=NC3(C=CC(=O)C=C3)C(c3ccccc3)=C2)CC1` reads 193 °C.
The compound `COc1cc(OC)c(N2CCCC2)cc1/C=C/C(=O)c1ccc(S(=O)(=O)NCCCn2ccnc2)cc1` gave a melting point of 140 to 143 °C.
`CN(C(=O)COc1nnc(-c2ccco2)s1)c1ccccc1` had a melting point of 94 °C.
On to `CCOC(=O)c1nnn(-c2ccccc2)c1Cl`, for which the melting point lay within 80 to 81 °C.
Then `CSc1sc(C(=O)O)c2c1-c1sc(C(=O)O)cc1CC2`, with greater than 300 °C; and `CC(C)C[C@@H](CO)NC(=O)[C@H](Cc1c[nH]cn1)NC(=O)[C@H](CSSc1ncccc1[N+](=O)[O-])NC(=O)OC(C)(C)C`, with 185 to 188 °C; and `COC(=O)COc1cccc2c1CCC(n1nc(-c3c(-c4ccccc4)nn4ccccc34)ccc1=O)C2=O` (configuration not stated), with 175 to 176 °C.
The result for `OCc1conc1-c1ccc(-c2ccccc2)cc1` reads 138 to 139 °C; that for `CC1C(=O)OC2COCC21` (configuration not stated), 89.5 to 90 °C.
For the compound `COC(=O)c1cc(NC(C)=O)ccc1OC`, the melting point is 132 to 134 °C.
Compound `Cc1ccccc1Nc1nc(NCCc2ccccc2)nc2ccccc12` returned a melting point of 95 to 96 °C.
The result for `Cc1cc2c(NC(=S)N3Cc4ccsc4CC3CO)cccc2cn1` (racemic) reads 190 °C; that for `O=C1c2cccc([N+](=O)[O-])c2C(=O)N1CC(=O)N1c2ccccc2N(Cc2ccccc2)C(=O)[C@H]2CCC[C@H]21` (relative stereo), 238 to 240 °C; that for `CN(C)CCC(=O)Nc1ccc2c(c1)C(=O)c1cc(NC(=O)CCN(C)C)ccc1C2=O`, 196 °C.
Then `COc1cc(CNC(=O)c2ccc3n2Cc2ccccc2N(C(=O)c2ccc(-c4ccccc4C)c(C)c2)C3)cc(OC)c1`, with 183 to 184 °C.
The result for `CCOc1ccccc1-c1ccc2cnc(Nc3ccc(N4CCN(C)CC4)cc3)nn12` reads 164 to 165 °C.
`COc1ccc(C=C[N+](=O)[O-])cc1OC1CCCC1` came in with a melting point of 133 to 134 °C.
`O=C1NCCN1c1ccc(S(=O)(=O)Nc2ccc3[nH]ccc3c2)cc1` had a melting point of 239 to 241 °C.
The result for `O=C(O)c1cc2n(c1)CCc1ccccc1C2=O` reads 287 to 290 °C.
Then `CC(C)(C)C(=O)COC(=O)C1(C(=O)OCc2ccccc2)CCCN(C(=O)OCC(Cl)(Cl)Cl)C1` (configuration not stated), with 114 °C; and `CSc1nc([C@@H]2C[C@H]2c2nc3ccccc3n2C)cc(-n2nc(C)nc2C)n1` (relative stereo), with 157 to 159 °C; and `Cc1c(C(=O)Nc2ccc(N3CCCC3)c(C#N)c2)cnn1-c1ccc(Cl)cc1`, with 205 °C.
`CN(C)S(=O)(=O)c1cc(C(=O)CBr)ccc1Cl`: the melting point is 98 °C.
Then `CC(C)C[C@H](NC(=O)[C@@H](O)[C@@H](Cc1ccc(S(C)(=O)=O)cc1)NC(=O)OCc1ccccc1)C(=O)OCc1ccccc1`, with 136 to 138 °C; and `O=[N+]([O-])c1c(NCC(O)CO)cccc1NCC(O)CO` (configuration not stated), with 138 °C.
Then `Cc1c(C2CCC(c3ccccc3)(N(C)C)CC2)[nH]c2ccc(F)cc12` (configuration not stated), with 199 to 205 °C; and `CN(C)C1CCN(c2ccc(-c3[nH]nc4c3C(=O)c3c(NC(=O)NN5CCOCC5)cccc3-4)cc2)CC1`, with 258 °C.
Then `Cn1cccc1C=CC1=CC(=O)C(C)(C)O1`, with 98.5 to 100 °C; and `NNc1cc2c(nn1)CCN(C(=O)c1ccccc1F)C2`, with 210 to 213 °C; and `CC(=O)NC[C@H]1CN(c2ccc(C3CCN(S(C)(=O)=O)CC3)c(F)c2)C(=O)O1`, with 240 to 242 °C.
For the compound `Cc1nc2c(OCc3ccccc3F)cccn2c1CO`, the melting point was 151 to 153 °C.
